Results reported in patent publication US20040220268A1, “Compound that directly stimulates phospholipase C activity” (priority 2003, published 2004).

How the values were obtained:
Assay in all cases: Phosphoinositide hydrolysis in vitro
Assay type in all cases: biochemical
[1] = target: PLC β2 (Homo sapiens, UniProt Q00722)
Protocol: (§1) The hydrolyzing activity of PtdIns-4,5-P2 was measured on mixed phospholipid vesicles containing 120 μM phosphatidylethanolamine, 30 μM PtdIns-4,5-P2, and 1 μCi/ml [3H] PtdIns-4,5-P2. Purified PLC β2, substrates, and the chemicals (2.5, 5, 10, 20, and 25 μM of m-3M3FBS or of o-3M3FBS) were coincubated (A), 25 μM of m-3M3FBS or o-3M3FBS, and phospholipid substrates were mixed with purified PLC β3, γ1, 2, or δ1 (B). Reactions were performed for 10 min at 37° C. in a 200 μl reaction mixture containing lipid micelles (5 μM [^3H] PtdIns-4,5-P2, 20,000 cpm). Reactions were stopped by adding 1 ml of CHCl3:CH3OH:HCl (50:50:0.3, v/v/v). Inositol trisphosphates were extracted with 0.5 ml of 1 M HCl/5 mM EGTA, and the radioactivity in the upper aqueous phase was measured. Data are presented as means ±S. E. M. of three independent experiments (A, B).
(§2) PLC activity was assayed using [^3H] PtdIns-4,5-P2 as a substrate (Min et al., 1993). PtdIns-4,5-P2-hydrolyzing activity was measured with mixed phospholipid micelles containing 120 μM phosphatidylethanolamine, 30 μM PtdIns-4,5-P2, and 1 μCi/ml [^3H] PtdIns-4,5-P2. The lipids, in chloroform, were dried under a stream of nitrogen gas, suspended in assay buffer (20 mM HEPES pH 7.0, 120 mM NaCl, 2 mM MgCl2, 40 or 100 μM CaCl2, and 1 mg/ml bovine albumin serum (Bayer, Leverkusen, Germany)), and sonicated. All proteins added to the reaction mixture were dialyzed overnight against the assay buffer. Incubation was performed for 10 min at 37° C. in a 200 μl reaction mixture containing lipid micelles (5 μM [3H] PtdIns-4,5-P2, 20,000 cpm). The reaction was stopped by adding 2 ml of CHCl3: CH3OH: HCl (50: 50: 0.3, v/v/v). The inositol triphosphates were extracted with 0.5 ml of 1 N HCl, and radioactivities in the upper aqueous phase were measured.

[2] = target: T1, PLC β3 (Homo sapiens, UniProt Q01970); conditions: 25 μM; purified isozyme
T1 sequence (Q01970 1-1234): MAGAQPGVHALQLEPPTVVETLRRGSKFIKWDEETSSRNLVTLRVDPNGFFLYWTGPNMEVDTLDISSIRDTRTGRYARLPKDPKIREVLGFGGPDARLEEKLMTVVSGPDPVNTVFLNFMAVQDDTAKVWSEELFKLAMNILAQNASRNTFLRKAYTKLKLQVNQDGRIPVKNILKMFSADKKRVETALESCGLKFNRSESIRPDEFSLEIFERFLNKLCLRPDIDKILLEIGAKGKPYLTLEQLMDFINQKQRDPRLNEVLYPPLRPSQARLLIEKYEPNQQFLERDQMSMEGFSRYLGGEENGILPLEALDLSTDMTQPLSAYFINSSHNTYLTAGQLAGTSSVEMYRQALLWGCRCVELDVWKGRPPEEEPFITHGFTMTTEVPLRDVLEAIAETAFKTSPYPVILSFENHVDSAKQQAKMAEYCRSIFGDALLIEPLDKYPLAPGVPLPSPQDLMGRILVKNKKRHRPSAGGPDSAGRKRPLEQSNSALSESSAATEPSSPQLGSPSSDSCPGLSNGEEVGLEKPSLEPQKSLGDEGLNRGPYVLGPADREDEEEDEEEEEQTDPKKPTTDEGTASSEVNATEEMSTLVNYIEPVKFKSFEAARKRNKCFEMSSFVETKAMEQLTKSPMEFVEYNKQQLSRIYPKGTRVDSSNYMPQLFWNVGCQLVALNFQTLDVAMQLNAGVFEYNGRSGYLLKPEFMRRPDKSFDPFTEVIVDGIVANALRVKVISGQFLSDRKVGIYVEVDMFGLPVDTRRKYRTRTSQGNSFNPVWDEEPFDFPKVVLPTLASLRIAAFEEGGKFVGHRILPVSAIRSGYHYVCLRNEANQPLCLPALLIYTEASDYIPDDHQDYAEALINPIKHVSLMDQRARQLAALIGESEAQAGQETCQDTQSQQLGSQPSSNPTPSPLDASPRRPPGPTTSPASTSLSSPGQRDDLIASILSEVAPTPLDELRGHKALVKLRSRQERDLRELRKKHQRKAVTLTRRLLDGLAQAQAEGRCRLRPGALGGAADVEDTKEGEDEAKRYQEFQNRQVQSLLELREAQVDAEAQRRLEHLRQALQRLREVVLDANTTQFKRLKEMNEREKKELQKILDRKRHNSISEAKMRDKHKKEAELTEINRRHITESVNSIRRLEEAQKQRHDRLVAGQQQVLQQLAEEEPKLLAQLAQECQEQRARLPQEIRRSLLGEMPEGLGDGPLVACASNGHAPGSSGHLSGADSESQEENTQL
Protocol: as §1, §2

[3] = target: T2, PLC δ1 (Homo sapiens, UniProt P51178); conditions: 25 μM; purified isozyme
T2 sequence (P51178 1-756): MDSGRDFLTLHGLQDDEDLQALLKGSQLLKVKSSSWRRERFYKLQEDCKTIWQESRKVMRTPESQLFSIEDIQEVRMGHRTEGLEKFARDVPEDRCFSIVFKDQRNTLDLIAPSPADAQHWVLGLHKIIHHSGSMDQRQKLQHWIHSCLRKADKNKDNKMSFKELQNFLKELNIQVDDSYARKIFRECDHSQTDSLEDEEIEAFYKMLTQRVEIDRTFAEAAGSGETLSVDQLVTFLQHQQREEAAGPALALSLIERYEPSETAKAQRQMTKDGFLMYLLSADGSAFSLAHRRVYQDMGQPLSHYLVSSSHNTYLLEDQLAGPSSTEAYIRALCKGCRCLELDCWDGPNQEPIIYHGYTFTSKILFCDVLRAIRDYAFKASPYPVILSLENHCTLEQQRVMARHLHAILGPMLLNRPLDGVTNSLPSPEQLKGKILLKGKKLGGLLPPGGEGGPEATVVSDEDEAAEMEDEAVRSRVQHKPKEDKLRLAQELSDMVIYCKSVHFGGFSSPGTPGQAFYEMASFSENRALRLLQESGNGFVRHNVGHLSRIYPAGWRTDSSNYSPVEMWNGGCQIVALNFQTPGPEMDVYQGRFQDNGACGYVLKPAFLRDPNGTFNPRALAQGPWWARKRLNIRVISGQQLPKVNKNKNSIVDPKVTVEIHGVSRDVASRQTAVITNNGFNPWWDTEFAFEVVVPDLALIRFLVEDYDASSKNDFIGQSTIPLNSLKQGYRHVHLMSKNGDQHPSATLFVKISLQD
Protocol: as §1, §2

Chain of PLC β2 (Q00722 whole entry, species assumed): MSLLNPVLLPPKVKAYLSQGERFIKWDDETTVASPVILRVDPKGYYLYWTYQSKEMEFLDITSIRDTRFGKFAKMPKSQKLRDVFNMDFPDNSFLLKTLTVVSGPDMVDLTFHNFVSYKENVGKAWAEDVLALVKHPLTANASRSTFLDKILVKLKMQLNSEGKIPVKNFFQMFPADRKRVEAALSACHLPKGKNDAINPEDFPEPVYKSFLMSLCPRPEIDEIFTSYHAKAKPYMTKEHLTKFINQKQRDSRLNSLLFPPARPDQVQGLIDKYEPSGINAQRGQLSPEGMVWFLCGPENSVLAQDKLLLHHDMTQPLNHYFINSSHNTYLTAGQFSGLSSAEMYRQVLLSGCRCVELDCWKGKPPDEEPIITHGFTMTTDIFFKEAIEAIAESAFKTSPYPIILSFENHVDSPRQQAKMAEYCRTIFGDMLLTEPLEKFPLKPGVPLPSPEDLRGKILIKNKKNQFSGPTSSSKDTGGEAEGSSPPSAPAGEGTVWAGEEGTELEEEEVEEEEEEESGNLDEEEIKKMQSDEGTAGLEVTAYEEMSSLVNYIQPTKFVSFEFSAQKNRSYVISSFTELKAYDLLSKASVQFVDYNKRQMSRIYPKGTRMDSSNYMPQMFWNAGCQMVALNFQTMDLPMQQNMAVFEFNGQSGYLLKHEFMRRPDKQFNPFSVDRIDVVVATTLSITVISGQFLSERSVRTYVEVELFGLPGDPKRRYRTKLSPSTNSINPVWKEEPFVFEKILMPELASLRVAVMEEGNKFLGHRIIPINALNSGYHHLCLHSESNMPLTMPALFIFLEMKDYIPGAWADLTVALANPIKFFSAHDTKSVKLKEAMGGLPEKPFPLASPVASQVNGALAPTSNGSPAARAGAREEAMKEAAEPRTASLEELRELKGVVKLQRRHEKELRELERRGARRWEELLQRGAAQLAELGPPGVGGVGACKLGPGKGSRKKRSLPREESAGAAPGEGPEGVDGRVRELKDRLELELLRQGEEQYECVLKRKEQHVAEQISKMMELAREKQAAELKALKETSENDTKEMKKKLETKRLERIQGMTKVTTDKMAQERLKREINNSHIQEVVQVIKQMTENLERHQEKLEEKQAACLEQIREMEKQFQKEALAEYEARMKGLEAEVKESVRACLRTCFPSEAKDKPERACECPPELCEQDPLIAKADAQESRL

SMILES | effect on PIP2-hydrolyzing activity of PLC β2 ([1]; at 10 μM or higher concentrations (up to 25 μM)) | activity of PLC beta3 [2] | activity of PLC delta1 [3] | in vitro PLCβ2 activity ([1]; [3H] PtdIns as substrate, data not shown) | concentration at which PIP2-hydrolyzing activity of PLC β2 was enhanced ([1]; [3H] PtdIns-4,5-P2 substrate) | effect on PIP2-hydrolyzing activity of PLC β2 ([1]; low doses (ca., 2.5 and 5 μM), [3H] PtdIns-4,5-P2 substrate)
Cc1cc(C)c(S(=O)(=O)Nc2ccccc2C(F)(F)F)c(C)c1 [o-3M3FBS, 2,4,6-Trimethyl-N-(ortho 3-trifluoromethyl-phenyl)-benzenesulfonamide, reference compound] | no effect | did not affect | did not affect |  |  | 
Cc1cc(C)c(S(=O)(=O)Nc2cccc(C(F)(F)F)c2)c(C)c1 [m-3M3FBS, 2,4,6-Trimethyl-N-(meta 3-trifluoromethyl-phenyl)-benzenesulfonamide] |  | augmented the activity | augmented the activity | significantly increased | exceeding 10 μM | no effect
